Measured values reported in patent US20130164226A1, “FOAMABLE AEROSOL COMPOSITION” (DAIZO CORPORATION, priority 2010, published 2013).

Assay: Solubility of the liquefied gas in water
Assay type: physicochemical
Conditions: at 20° C.
Experimental: In the present invention, the liquefied gas to be blended is characterized by being a poorly water-soluble liquefied gas having solubility in water at 20° C. of less than 10 wt %, preferably less than 5 wt %. When the solubility of the liquefied gas in water is more than 10 wt %, the liquefied gas is hardly emulsified with the concentrate and emulsification stability is apt to be lowered, and therefore, a uniform composition tends to be hardly sprayed. In addition, in the case of blending a gas mixture as the liquefied gas, it is enough for the gas mixture to have properties corresponding to those of a poorly water-soluble liquefied gas.

Row | Compound | solubility in water
1 | COC [dimethyl ether (*17), dimethyl ether] | 33 wt %
2 | F/C=C/C(F)(F)F [trans-1,3,3,3-tetrafluoroprop-1-ene] | ≤ 1 wt %
